Test: Stability of compound (observation)
Assay type: physicochemical
Conditions: must be used immediately in coupling with polymer

Stability: unstable
SMILES: CC(=S)NC1C(O)CC(OCc2ccc(NC(=S)CN)cc2)(C(=O)O)OC1C(O)C(O)CO [VIII, p-thioglycylamidobenzyl 3,5-dideoxy-5-thioacetamido-α-D-glycero-D-galacto-nonulopyranosidonic acid]

— patent publication US5571836A, “Viral attachment inhibitors” (priority 1995, dated 1996)
